Measurements from patent US20100087658A1, “METHODS AND INTERMEDIATES FOR SYNTHESIS OF SELECTIVE DPP-IV INHIBITORS” (Phenomix Corporation, priority 1996, published 2010).

Details: crystalline form as isolated

In the case of `O=C([O-])CN(C(=O)OCc1ccccc1)C1CCN(C(=O)OCc2ccccc2)C1.[Na+]` (stereo not shown) [II-Cbz-Na, sodium salt of (1-carbobenzyloxypyrrolidin-3-yl)-N-carbobenzyloxyglycine], the water solubility is reported as “highly water-soluble”.
